Among the data in ChEMBL document CHEMBL3769306, “Discovery of Molecular Therapeutics for Glaucoma: Challenges, Successes, and Promising Directions” (J Med Chem, 2016) are Kd, Ki and IC50 values, retold here.

In assay [1] the target is T1, Adenosine receptor A2a (Homo sapiens, UniProt P29274). Description: Displacement of 2-[2-(4-amino-3-[125I]iodophenyl)ethylamino]adenosine from human recombinant adenosine A2A receptor expressed in HEK293 cells. In kind it is cell-based.
The target of assay [2] is T1, Adenosine receptor A2a. Description: Displacement of [3H]-[…] from human recombinant adenosine A2A receptor.
The next assay has as its target T2, Adenosine receptor A3 (Homo sapiens, UniProt P0DMS8).
T2 sequence (P0DMS8 whole entry): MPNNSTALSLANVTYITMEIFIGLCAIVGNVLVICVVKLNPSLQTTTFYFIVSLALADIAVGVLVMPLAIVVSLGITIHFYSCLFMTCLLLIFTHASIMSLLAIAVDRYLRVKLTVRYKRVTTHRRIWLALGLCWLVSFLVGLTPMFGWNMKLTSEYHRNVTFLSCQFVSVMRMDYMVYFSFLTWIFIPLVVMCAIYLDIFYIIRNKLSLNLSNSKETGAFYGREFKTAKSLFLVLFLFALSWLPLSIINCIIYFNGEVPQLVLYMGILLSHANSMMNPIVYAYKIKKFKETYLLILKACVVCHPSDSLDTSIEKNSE
Description: Antagonist activity at human adenosine A3 receptor.

The target of assay [3] is T3, Rho-associated protein kinase 2 (Homo sapiens, UniProt O75116). Description: Inhibition of ROCK2 (unknown origin) using STK2 as substrate after 1 hr.
T3 sequence (O75116 whole entry): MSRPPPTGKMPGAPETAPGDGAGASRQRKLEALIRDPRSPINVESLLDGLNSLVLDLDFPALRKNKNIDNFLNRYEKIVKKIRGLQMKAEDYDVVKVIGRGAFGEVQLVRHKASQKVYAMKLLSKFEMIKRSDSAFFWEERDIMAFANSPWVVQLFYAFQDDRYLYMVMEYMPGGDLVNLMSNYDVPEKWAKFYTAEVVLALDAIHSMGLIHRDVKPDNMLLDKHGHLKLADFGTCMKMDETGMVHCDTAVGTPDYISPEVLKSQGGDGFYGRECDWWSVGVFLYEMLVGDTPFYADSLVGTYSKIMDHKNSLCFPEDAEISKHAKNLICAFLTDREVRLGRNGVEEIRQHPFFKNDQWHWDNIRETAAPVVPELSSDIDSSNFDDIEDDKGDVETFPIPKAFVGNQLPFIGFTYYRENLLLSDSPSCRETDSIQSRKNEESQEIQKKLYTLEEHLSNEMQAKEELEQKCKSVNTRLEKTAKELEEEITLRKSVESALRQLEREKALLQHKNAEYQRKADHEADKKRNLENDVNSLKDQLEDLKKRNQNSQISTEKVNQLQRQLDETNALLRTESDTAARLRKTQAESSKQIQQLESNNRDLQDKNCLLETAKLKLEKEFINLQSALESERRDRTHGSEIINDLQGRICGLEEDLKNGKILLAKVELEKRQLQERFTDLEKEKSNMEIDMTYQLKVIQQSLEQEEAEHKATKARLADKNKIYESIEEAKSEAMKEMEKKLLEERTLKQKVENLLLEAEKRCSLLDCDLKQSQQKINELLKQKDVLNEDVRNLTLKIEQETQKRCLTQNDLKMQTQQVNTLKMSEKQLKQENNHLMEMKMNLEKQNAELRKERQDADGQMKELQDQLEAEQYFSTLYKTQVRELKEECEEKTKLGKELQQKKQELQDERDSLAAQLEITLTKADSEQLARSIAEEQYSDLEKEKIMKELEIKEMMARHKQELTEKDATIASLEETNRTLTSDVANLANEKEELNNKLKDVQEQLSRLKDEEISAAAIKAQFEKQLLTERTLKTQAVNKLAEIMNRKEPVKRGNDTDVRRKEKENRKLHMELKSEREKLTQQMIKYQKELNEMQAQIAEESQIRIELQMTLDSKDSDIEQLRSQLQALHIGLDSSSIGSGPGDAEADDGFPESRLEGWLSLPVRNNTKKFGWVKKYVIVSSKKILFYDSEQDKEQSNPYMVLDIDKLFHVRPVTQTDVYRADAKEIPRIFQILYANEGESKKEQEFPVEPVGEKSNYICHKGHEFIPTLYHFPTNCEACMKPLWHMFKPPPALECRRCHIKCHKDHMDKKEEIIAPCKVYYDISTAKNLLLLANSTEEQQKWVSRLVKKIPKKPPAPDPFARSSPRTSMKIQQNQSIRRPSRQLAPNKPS
The target in assay [4] is Rho-associated protein kinase 1 (Homo sapiens, UniProt Q13464). Briefly: Inhibition of ROCK1 (unknown origin).
Chain of Rho-associated protein kinase 1 (Q13464 whole entry): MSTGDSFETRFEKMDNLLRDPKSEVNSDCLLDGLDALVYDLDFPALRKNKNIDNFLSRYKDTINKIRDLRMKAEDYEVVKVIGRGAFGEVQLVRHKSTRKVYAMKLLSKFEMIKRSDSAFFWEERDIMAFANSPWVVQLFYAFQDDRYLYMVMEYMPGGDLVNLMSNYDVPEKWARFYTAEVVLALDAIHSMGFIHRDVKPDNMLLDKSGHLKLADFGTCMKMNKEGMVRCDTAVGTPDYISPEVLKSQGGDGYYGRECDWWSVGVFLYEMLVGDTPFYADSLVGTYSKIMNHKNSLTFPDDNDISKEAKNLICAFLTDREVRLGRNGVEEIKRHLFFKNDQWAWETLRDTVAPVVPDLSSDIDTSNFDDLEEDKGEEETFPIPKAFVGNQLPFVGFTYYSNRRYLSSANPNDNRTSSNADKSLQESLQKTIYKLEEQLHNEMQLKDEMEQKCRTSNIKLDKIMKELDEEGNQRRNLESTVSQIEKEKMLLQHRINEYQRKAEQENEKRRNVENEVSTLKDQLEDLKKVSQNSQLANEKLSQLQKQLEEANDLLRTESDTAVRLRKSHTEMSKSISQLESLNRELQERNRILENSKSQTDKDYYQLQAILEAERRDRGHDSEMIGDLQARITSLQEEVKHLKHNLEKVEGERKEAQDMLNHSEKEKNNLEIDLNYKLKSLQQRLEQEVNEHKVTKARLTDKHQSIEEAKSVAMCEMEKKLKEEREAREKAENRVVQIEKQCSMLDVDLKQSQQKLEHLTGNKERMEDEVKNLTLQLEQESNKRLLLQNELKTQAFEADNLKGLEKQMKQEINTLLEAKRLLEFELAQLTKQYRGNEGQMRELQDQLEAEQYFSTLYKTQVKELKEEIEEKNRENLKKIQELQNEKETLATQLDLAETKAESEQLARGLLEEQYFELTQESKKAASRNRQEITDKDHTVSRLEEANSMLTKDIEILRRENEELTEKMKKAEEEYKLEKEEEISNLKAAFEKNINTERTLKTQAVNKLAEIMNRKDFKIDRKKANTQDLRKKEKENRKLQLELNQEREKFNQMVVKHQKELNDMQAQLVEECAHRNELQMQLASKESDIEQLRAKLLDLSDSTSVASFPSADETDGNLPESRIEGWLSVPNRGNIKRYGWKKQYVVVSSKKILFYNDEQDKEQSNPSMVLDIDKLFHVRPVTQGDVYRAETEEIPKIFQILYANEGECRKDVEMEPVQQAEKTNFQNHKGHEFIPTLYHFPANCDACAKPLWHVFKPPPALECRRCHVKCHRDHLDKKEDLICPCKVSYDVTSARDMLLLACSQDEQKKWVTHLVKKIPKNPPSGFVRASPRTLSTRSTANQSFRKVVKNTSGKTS
Assay [5] concerns the target T3, Rho-associated protein kinase 2. Description: Inhibition of ROCK2 (unknown origin).

T1 sequence (P29274 whole entry): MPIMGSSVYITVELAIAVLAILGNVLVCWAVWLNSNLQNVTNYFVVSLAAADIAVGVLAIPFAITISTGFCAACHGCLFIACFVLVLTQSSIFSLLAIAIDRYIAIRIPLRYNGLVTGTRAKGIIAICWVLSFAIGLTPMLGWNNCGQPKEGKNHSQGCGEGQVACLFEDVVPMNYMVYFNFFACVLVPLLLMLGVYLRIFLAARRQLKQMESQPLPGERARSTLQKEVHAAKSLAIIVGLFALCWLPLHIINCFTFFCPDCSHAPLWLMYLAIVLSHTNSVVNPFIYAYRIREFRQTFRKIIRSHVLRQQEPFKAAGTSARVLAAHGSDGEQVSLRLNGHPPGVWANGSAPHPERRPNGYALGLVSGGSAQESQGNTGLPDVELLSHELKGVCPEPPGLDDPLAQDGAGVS

For the molecule `COC(=O)N1CCC(CC#Cc2nc(N)c3ncn([C@@H]4O[C@H](C(=O)NC5CC5)[C@@H](O)[C@H]4O)c3n2)CC1` [EVODENOSON], the Kd on Adenosine receptor A2a [1] worked out at 0.7 nM. For `CCCCCCC#Cc1nc(N)c2ncn([C@@H]3O[C@H](CO)[C@@H](O)[C@H]3O)c2n1`, the Ki on Adenosine receptor A2a [2] was 31.8 nM. Take `CNC(=O)[C@H]1O[C@@H](n2cnc3c(NCc4cccc(I)c4)nc(Cl)nc32)[C@H](OC(C)=O)[C@@H]1OC(C)=O`: at Adenosine receptor A3, affinity was put at a Ki of 910 nM. `CN(C)CCOc1cc(-c2cn[nH]c2)ccc1NC(=O)C1COc2ccccc2O1` (stereo not given) [SR-3677] had an IC50 in assay [3] of 3 nM. This lies in the single-digit nanomolar range. As to `NC(C(=O)Nc1ccc2cnccc2c1)c1ccccc1` (stereo not given), the IC50 was determined as 6 nM in assay [4] and 1.5 nM in assay [5]. For `NCC(C(=O)Nc1ccc2cnccc2c1)c1ccccc1` (stereo not given), in that order: 1.2 nM and 1.1 nM. With `C[C@H]1CNCCCN1S(=O)(=O)c1cccc2cncc(F)c12`, the IC50 in assay [5] stood at 19 nM. Regarding `N#CCCCCC#Cc1nc(N)c2ncn([C@@H]3O[C@H](CO)[C@@H](O)[C@H]3O)c2n1`, the Ki at Adenosine receptor A2a [2] turned out to be 49.3 nM.
